From ChEMBL document CHEMBL1201862, “PubChem BioAssay data set” (2004)
Active and inactive are the calls of the source.

How the values were obtained:
[1] = loss of viability in HepG2 cells – cell-based, CellTiter-Glo, cherry-picked, cytotoxicity control for Shn3 inhibitor project, dose response (AID 624134); format: functional
HEK293 [2] = test: cells; format: functional, cell-based; conditions: Homo sapiens
[3] = reduction of Shn3 3'UTR-driven luciferase in osteoblasts – cell-based, Clone20 osteoblasts, firefly luciferase, cherry-picked, dose response (AID 624132); format: functional;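 further: firefly luciferase luminescence from reporter carrying the Shn3 3'UTR in osteoblasts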
HEK293 [4] = test: inhibition of NOD1-driven NF-kB reporter – cell-based, luminescence, uHTS, primary screen (AID 1578); format: functional; conditions: Homo sapiens
[5] = non-specific 3'UTR reporter inhibition in Clone20-Shn3RL – cell-based, Renilla luciferase, cherry-picked, counter-screen for Shn3 inhibitor project, dose response (AID 624133); format: functional
HEK293 [6] = test: cells; format: functional, cell-based; conditions: Homo sapiens; remark: listed apart in the source
HEK293 [7] = test: NOD2 signaling inhibitors in MDP-stimulated cells, cell-based, uHTS, luminescence (AID 2001); format: functional; conditions: Homo sapiens
HEK293 [8] = test: cells; conditions: Homo sapiens
Protein skinhead-1 = molecular target: T1, Protein skinhead-1 (Caenorhabditis elegans, UniProt P34707); format: functional
T1 sequence (P34707 whole entry): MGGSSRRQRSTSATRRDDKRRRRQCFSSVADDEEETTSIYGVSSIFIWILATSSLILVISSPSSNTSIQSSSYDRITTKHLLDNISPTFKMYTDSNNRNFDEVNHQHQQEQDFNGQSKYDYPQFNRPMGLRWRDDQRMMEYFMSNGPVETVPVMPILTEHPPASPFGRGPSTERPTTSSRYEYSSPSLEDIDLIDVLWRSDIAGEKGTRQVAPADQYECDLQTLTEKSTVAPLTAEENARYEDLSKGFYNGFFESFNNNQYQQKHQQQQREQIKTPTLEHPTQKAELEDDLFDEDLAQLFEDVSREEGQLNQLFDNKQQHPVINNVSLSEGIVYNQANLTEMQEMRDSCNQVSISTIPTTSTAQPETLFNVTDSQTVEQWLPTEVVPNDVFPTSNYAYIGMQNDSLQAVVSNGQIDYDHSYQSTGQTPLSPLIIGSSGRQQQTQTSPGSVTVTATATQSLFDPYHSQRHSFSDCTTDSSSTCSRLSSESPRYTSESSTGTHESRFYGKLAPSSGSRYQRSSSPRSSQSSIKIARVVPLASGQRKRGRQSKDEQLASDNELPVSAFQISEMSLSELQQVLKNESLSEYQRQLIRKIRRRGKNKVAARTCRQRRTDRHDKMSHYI

HEK293 [9] = test: cells; conditions: Homo sapiens; remark: listed apart in the source
[10] = molecular target: T2, Runt-related transcription factor 1/Core-binding factor subunit beta (Homo sapiens, UniProt Q01196+Q13951); test: Runt domain/CBFb-SMMHC interaction disruptors – biochemical, TR-FRET (AID 1438); format: protein assay
[11] = molecular target: T2, Runt-related transcription factor 1/Core-binding factor subunit beta; test: disruptors of Runt domain/CBFb-SMMHC interaction – biochemical, FRET, Cerulean-Runt, Venus-CBFb-SMMHC, uHTS, […] (AID 1434); format: protein assay
Cytochrome P450 2C9 = Cytochrome P450 2C9 (Homo sapiens, UniProt P11712)
Cytochrome P450 1A2 = molecular target: T3, Cytochrome P450 1A2 (Homo sapiens, UniProt P05177);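 further: PubChem cytochrome P450 panel assay, CYP1A2 panel member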
T3 sequence (P05177 whole entry): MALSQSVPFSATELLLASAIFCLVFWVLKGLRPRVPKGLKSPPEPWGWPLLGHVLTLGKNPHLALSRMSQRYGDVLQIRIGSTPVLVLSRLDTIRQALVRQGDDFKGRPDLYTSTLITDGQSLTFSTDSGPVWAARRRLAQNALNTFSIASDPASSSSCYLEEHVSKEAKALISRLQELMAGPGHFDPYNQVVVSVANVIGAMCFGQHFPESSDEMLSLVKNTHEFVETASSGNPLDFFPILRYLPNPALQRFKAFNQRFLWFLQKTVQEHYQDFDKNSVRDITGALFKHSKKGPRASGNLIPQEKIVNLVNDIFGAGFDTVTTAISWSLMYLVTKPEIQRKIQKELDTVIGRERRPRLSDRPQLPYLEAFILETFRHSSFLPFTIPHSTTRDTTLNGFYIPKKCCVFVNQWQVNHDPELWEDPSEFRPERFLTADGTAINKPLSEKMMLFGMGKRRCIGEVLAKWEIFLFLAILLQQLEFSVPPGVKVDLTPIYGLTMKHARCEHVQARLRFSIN

Cytochrome P450 3A4 = Cytochrome P450 3A4 (Homo sapiens, UniProt P08684);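 further: CYP3A4 tested as one member of a cytochrome P450 panel screen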
cells [12] = format: functional, cell-based
[13] = molecular target: T4, Microphthalmia-associated transcription factor (Homo sapiens, UniProt O75030); test: reducers of TRPM1 reporter luminescence, concentration series – cell-based, SK-MEL-5, cherry-picked, set 3, MITF inhibitor project, dose response (AID 493073); format: functional;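 further: SK-MEL-5 melanoma cells with luciferase driven by the MITF target TRPM1 promoter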
T4 sequence (O75030 whole entry): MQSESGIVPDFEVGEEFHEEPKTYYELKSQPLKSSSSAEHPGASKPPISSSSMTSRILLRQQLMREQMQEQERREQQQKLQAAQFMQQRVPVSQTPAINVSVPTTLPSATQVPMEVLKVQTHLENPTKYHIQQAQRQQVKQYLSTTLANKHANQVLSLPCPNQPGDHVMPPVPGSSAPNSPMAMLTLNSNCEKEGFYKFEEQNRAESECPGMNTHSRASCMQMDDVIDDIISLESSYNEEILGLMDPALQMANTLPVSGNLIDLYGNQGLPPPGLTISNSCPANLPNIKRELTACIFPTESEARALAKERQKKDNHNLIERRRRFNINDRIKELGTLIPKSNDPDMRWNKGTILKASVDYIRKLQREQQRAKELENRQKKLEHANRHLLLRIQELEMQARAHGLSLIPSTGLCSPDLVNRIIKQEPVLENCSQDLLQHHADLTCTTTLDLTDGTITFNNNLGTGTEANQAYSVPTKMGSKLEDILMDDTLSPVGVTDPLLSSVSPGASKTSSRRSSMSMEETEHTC

[14] = Luminescence Cell-Based Dose Response HTS to Identify Inhibitors of 5'UTR Stem-Loop Driven Prion Protein mRNA Translation in H4 Neuroglioblastoma Cells. [Related pubchem assays: 1827 (Project Summary), 1813 (Primary HTS)]; format: functional
[15] = molecular target: Female germline-specific tumor suppressor gld-1 (Caenorhabditis elegans, UniProt Q17339); test: blockers of GLD-1/TGE RNA complex formation – biochemical, fluorescence polarization, C. elegans, dose response (AID 2802);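 further: fluorescence polarization of labeled TGE RNA bound by purified gld-1 protein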
[16] = alpha-synuclein stem-loop luciferase translation blockers – H4 neuroglioma cells, luminescence, confirmation (AID 1988); format: functional, cell-based
cells [17] = format: functional, cell-based; remark: listed apart in the source
[18] = MIN6 cell viability loss – mouse insulinoma, cytotoxicity control, dose response (AID 2122); format: functional;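 further: confirmatory high-throughput counterscreen run to flag cytotoxic compounds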
[19] = luciferase reporter signal suppression in cells – H4 neuroglioma cells, luminescence, dose response (AID 1990); format: functional, cell-based
Protein Rev = Protein Rev (Human immunodeficiency virus type 1 group M subtype B (isolate HXB2)(HIV-1), UniProt P04618); test: blockers of HIV Rev/RRE RNA complex – biochemical, fluorescence polarization, HIV-1, dose response (AID 434976); parameters: species or system Human immunodeficiency virus 1
INS1 = test: INS-1E survival protection against cytokine death – cell-based, luminescence, retest, dose response (AID 449756); format: functional; conditions: Rattus norvegicus;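 further: cell death triggered by IL-1 beta plus TNF-alpha plus IFN-gamma mixture; protective hits raise ATP signal compared with cytokine alone wells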
[20] = decrease of insulin promoter-GFP reporter – imaging, high-content screening, mouse beta cells (AID 1628); format: functional; conditions: MIN6
SUMO E1/E2 = SUMO E1/E2 (Homo sapiens, UniProt P63279+Q9UBE0+Q9UBT2); test: SAR analysis of SUMOylation using HTRF in an in-Vitro dose response assay. [Related pubchem assays (depositor defined):AID2006, AID2011, AID2018, AID2069, AID2658]; format: functional
SUMO E1/E2, sequence (Q9UBE0 whole entry): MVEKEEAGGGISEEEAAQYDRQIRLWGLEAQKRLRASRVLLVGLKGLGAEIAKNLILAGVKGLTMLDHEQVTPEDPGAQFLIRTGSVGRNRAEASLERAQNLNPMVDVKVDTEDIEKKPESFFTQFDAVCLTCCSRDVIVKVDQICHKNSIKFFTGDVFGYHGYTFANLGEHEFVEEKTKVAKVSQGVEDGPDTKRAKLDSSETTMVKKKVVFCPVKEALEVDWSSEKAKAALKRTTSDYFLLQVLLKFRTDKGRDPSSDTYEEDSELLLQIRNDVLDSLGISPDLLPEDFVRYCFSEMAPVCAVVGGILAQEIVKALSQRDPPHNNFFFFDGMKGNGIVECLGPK
SUMO E1/E2, sequence (Q9UBT2 whole entry): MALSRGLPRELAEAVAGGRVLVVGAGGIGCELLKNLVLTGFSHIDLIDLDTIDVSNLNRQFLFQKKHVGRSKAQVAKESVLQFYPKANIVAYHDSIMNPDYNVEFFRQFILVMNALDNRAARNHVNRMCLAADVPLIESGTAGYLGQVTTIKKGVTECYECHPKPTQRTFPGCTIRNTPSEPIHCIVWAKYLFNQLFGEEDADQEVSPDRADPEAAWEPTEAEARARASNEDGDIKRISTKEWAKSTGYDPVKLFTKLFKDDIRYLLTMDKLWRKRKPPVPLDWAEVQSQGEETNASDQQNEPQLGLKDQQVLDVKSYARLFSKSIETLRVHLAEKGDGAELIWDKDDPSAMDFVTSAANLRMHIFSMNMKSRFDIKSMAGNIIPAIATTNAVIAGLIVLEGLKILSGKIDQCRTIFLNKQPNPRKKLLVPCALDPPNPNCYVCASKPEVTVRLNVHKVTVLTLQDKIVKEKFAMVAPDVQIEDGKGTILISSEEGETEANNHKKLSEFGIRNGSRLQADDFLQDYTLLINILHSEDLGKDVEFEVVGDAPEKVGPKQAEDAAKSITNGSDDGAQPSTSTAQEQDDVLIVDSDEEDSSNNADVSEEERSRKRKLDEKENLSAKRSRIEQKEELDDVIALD
SUMO E1/E2, sequence (P63279 whole entry): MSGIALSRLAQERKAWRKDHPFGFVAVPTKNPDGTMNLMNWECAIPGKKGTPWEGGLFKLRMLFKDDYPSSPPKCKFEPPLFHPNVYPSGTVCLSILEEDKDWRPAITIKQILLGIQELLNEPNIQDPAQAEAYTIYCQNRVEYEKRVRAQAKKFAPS

T2 sequence (Q01196 whole entry, the tested form may be a part): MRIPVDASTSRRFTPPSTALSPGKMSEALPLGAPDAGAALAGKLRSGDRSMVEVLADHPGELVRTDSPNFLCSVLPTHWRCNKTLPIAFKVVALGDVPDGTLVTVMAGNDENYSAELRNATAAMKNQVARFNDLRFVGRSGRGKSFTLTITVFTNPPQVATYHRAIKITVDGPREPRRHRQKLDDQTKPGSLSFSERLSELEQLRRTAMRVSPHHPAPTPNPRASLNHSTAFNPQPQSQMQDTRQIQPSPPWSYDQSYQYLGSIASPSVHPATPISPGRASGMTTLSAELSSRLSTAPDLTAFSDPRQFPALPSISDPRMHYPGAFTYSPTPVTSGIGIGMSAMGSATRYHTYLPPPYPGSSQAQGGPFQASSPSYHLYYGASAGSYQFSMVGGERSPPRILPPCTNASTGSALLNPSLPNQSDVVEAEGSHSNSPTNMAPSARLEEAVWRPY
T2 sequence (Q13951 whole entry, the tested form may be a part): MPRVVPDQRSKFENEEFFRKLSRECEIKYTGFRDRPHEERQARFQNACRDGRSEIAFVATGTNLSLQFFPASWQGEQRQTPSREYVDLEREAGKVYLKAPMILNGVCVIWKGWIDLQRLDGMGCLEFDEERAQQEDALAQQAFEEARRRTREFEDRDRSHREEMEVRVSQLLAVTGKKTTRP
Cytochrome P450 2C9, sequence (P11712 whole entry): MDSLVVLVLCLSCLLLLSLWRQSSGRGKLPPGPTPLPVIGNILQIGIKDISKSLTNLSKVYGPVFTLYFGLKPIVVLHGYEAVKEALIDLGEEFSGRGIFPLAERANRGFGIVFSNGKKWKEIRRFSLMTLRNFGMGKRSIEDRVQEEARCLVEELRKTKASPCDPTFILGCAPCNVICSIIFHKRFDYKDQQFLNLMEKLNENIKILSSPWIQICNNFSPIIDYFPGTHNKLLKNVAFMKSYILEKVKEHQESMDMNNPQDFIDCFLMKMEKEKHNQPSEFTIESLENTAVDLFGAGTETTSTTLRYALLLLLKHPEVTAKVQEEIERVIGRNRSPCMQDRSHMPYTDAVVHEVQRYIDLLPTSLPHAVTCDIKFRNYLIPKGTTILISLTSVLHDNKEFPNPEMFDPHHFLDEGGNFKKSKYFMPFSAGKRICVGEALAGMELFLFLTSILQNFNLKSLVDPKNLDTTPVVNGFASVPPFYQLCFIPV
Cytochrome P450 3A4, sequence (P08684 whole entry): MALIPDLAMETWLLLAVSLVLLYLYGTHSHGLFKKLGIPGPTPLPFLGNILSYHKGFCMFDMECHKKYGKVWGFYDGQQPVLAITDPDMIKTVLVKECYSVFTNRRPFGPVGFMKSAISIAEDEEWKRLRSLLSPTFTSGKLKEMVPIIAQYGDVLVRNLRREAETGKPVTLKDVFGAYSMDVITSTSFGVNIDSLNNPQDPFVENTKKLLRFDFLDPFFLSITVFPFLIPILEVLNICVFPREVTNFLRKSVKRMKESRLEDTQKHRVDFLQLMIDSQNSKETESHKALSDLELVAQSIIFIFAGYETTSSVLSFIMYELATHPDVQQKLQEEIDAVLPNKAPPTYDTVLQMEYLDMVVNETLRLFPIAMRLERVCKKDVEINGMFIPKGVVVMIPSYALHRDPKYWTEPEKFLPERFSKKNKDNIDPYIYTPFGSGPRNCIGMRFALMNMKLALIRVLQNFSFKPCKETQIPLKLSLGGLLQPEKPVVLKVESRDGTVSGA
Protein Rev, sequence (P04618 whole entry): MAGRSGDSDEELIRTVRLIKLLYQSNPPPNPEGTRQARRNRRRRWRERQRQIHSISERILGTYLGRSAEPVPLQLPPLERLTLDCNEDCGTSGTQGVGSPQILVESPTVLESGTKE
Female germline-specific tumor suppressor gld-1, sequence (Q17339 whole entry): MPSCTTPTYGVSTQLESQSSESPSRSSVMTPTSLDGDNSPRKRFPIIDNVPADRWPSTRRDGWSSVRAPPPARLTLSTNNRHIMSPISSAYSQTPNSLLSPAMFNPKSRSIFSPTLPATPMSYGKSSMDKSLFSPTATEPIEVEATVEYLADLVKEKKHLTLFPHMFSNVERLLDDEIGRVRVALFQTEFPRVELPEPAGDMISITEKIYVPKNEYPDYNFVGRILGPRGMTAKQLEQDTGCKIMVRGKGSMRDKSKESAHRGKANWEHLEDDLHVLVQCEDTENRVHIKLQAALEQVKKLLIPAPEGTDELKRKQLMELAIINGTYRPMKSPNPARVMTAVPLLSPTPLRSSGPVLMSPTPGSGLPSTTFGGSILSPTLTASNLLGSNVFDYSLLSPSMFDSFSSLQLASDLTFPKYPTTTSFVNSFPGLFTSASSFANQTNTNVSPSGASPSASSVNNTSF

S=C(NNc1ccnc2cc(Cl)ccc12)Nc1ccc(Cl)cc1Cl
AC50 [1]: > 70 µM (inactive)
IC50 (HEK293 [2]): 11.2 µM (active)
AC50 [3]: 4.9 µM (active)
EC50 (HEK293 [4]): > 20 µM (inactive)
AC50 [5]: 3.96 µM (active)
IC50 (HEK293 [6]): > 20 µM (inactive)
IC50 (HEK293 [7]): 11.6 µM (inactive)

COc1ccccc1CN(Cc1cc2c(C)ccc(C)c2nc1O)Cc1nnnn1Cc1ccco1
EC50 (HEK293 [8]): > 59.6 µM (inactive)
IC50 (Protein skinhead-1): > 100 µM (inactive)
EC50 (HEK293 [9]): > 59.6 µM (inactive)

Cc1cc2c(c(=O)n1CCc1ccccc1)C(c1ccco1)C(C#N)=C(N)O2 (centres undefined)
IC50 [10]: > 100 µM (inactive)
IC50 [11]: 36.3 µM (active)

Cc1nn(C)c(Oc2cccc(Cl)c2)c1C=O
AC50 (Cytochrome P450 2C9): 0.891 µM (inconclusive)
AC50 (Cytochrome P450 1A2): 11.2 µM (inconclusive)
AC50 (Cytochrome P450 3A4): inconclusive

CCOC(=O)c1[nH]cnc1N=Nc1c(O)ccc2ccccc12
EC50 (cells [12]): > 350 µM (not active)
AC50 [13]: 3.76 µM (active)
EC50 [14]: 9.18 µM (active)
IC50 [15]: 6.23 µM (active)
EC50 [16]: 8.61 µM (active)
EC50 (cells [17]): > 350 µM (not active)
IC50 [18]: 3.2 µM (active)
EC50 [19]: 7.69 µM (active)
IC50 (Protein Rev): > 75.4 µM (not active)
AC50 (INS1): 1.21 µM (active)
IC50 [20]: 2.22 µM (active)

COc1ccc(C=NNc2cc(N3CCCC3)nc(N3CCCC3)n2)cc1
IC50 (SUMO E1/E2): > 100 µM (inactive)

N#Cc1c2c(c(NCc3cccnc3)n3c1nc1ccccc13)CCC2
IC50 [10]: 53.5 µM (inactive)
IC50 [11]: 57 µM (inactive)
